In brackets after ≈: the same amount, converted by molar mass. Activity calls are given as the source filed them. The calls are words filed in the database; no cut-off is given here.
Key:
[1] = test system: Streptococcus pneumoniae; test: Potency index, ratio of MIC of CAM to MIC of compound for antibacterial activity against erythromycin-resistant Streptococcus pneumoniae B1 expressing ermB gene; format: functional
[2] = test system: Streptococcus pyogenes; test: Antibacterial activity against erythromycin resistant Streptococcus pyogenes R1 by standard broth microdilution method; format: functional
[3] = test system: Escherichia coli; test: Antibacterial activity against penicillin-susceptible Escherichia coli ATCC 25922 by standard broth microdilution method; format: functional
[4] = test system: Streptococcus pneumoniae; test: Bactericidal activity against erythromycin-resistant Streptococcus pneumoniae AB11 expressing ermB and me/A genes; format: functional
[5] = test system: Streptococcus pneumoniae; test: Ratio of MBC for erythromycin-resistant Streptococcus pneumoniae AB11 expressing ermB and me/A genes to MIC for erythromycin-resistant Streptococcus pneumoniae AB11 expressing ermB and me/A genes; format: functional
[6] = test system: Bacillus subtilis; test: Bactericidal activity against penicillin-susceptible Bacillus subtilis ATCC 9372; format: functional
[7] = test system: Streptococcus pneumoniae; test: Potency index, ratio of MIC of AZM to MIC of compound for antibacterial activity against erythromycin-resistant Streptococcus pneumoniae AB11 expressing ermB and me/A genes; format: functional
[8] = test system: Staphylococcus aureus; test: Potency index, ratio of MIC of AZM to MIC of compound for antibacterial activity against methicillin-resistant Staphylococcus aureus ATCC 43300; format: functional
[9] = test system: Streptococcus pneumoniae; test: Antibacterial activity against erythromycin-resistant Streptococcus pneumoniae B1 expressing ermB gene by standard broth microdilution method; format: functional
[10] = test system: Bacillus subtilis; test: Antibacterial activity against penicillin-susceptible Bacillus subtilis ATCC 9372 by standard broth microdilution method; format: functional
[11] = test system: Bacillus subtilis; test: Ratio of MBC for penicillin-susceptible Bacillus subtilis ATCC 9372 to MIC for penicillin-susceptible Bacillus subtilis ATCC 9372; format: functional
[12] = test system: Streptococcus pyogenes; test: Potency index, ratio of MIC of CAM to MIC of compound for antibacterial activity against erythromycin resistant Streptococcus pyogenes R1; format: functional
[13] = test system: Staphylococcus aureus; test: Antibacterial activity against erythromycin-susceptible Staphylococcus aureus ATCC 25923 by standard broth microdilution method; format: functional
[14] = test system: Staphylococcus aureus; test: Antibacterial activity against methicillin-resistant Staphylococcus aureus ATCC 43300 by standard broth microdilution method; format: functional
[15] = test system: Streptococcus pyogenes; test: Potency index, ratio of MIC of AZM to MIC of compound for antibacterial activity against erythromycin resistant Streptococcus pyogenes R1; format: functional
[16] = test system: Staphylococcus aureus; test: Potency index, ratio of MIC of CAM to MIC of compound for antibacterial activity against methicillin-resistant Staphylococcus aureus ATCC 43300; format: functional
[17] = test system: Streptococcus pneumoniae; test: Potency index, ratio of MIC of AZM to MIC of compound for antibacterial activity against erythromycin-resistant Streptococcus pneumoniae B1 expressing ermB gene; format: functional
[18] = test system: Streptococcus pneumoniae; test: Antibacterial activity against erythromycin-resistant Streptococcus pneumoniae AB11 expressing ermB and me/A genes by standard broth microdilution method; format: functional
[19] = test system: Streptococcus pneumoniae; test: Potency index, ratio of MIC of CAM to MIC of compound for antibacterial activity against erythromycin-resistant Streptococcus pneumoniae AB11 expressing ermB and me/A genes; format: functional
[20] = test system: Pseudomonas aeruginosa; test: Antibacterial activity against penicillin-susceptible Pseudomonas aeruginosa ATCC 27853 by standard broth microdilution method; format: functional
[21] = test system: Streptococcus pneumoniae; test: Bacteriostatic activity against erythromycin-resistant Streptococcus pneumoniae AB11 expressing ermB and me/A genes at 1 to 4 MIC incubated for 9 to 24 hrs by time-kill curve assay; format: functional, organism-based
[22] = test system: Streptococcus pneumoniae; test: Bactericidal activity against erythromycin-resistant Streptococcus pneumoniae AB11 expressing ermB and me/A genes at 1 to 4 times of MIC incubated for 9 hrs by time-kill curve assay; format: functional, organism-based

CC[C@H]1OC(=O)[C@H](C)C(=O)[C@H](C)[C@@H](O[C@H]2O[C@@H](C)C[C@@H](N(C)C)[C@@H]2O)[C@](C)(OC)C[C@@H](C)C(=O)[C@H](C)[C@@H](OC(=O)NCCCn2cc(-c3ccc(-c4ccccc4)cc3)nn2)[C@]1(C)O gave a Ratio [1] of over 16, an MIC [2] of 16 µg/mL (≈ 17.9 µM) and an MIC [3] of over 128 µg/mL. The MBC [4] was 128 µg/mL (≈ 143 µM), the Ratio [5] was 8 and the MBC [6] was 32 µg/mL (≈ 35.9 µM). For the same compound, the Ratio [7] was 8 - 16, the Ratio [8] was over 4 and the MIC [9] was 16 µg/mL (≈ 17.9 µM). For the same compound, the MIC [10] was 1 µg/mL (≈ 1.12 µM), the Ratio [11] was 32 and the Ratio [12] was 8 - 16. The MIC [13] was 4 µg/mL (≈ 4.48 µM), the MIC [14] was 64 µg/mL (≈ 71.7 µM) and the Ratio [15] was 8 - 16. For the same compound, the Ratio [16] was over 4, the Ratio [17] was over 16 and the MIC [18] was 16 µg/mL (≈ 17.9 µM). The Ratio [19] was 4 - 8 and the MIC [20] was 128 µg/mL (≈ 143 µM).
CCCCc1ccc(-c2cn(CCNC(=O)O[C@@H]3[C@@H](C)C(=O)[C@H](C)C[C@@](C)(OC)[C@H](O[C@H]4O[C@@H](C)C[C@@H](N(C)C)[C@@H]4O)[C@@H](C)C(=O)[C@@H](C)C(=O)O[C@H](CC)[C@@]3(C)O)nn2)cc1 gave an MIC [2] of 32 µg/mL (≈ 37.3 µM), an MIC [3] of over 128 µg/mL and an MIC [9] of 128 µg/mL (≈ 149 µM). For the same compound, the MIC [10] was 4 µg/mL (≈ 4.66 µM), the Ratio [12] was 8 - 16 and the MIC [13] was 16 µg/mL (≈ 18.6 µM). For the same compound, the MIC [14] was 256 µg/mL (≈ 298 µM), the Ratio [15] was 8 - 16 and the MIC [18] was 64 µg/mL (≈ 74.6 µM). The MIC [20] was 128 µg/mL (≈ 149 µM).
With CCCCc1ccc(-c2cn(CCCNC(=O)O[C@@H]3[C@@H](C)C(=O)[C@H](C)C[C@@](C)(OC)[C@H](O[C@H]4O[C@@H](C)C[C@@H](N(C)C)[C@@H]4O)[C@@H](C)C(=O)[C@@H](C)C(=O)O[C@H](CC)[C@@]3(C)O)nn2)cc1 the MIC [2] was 16 µg/mL (≈ 18.3 µM), the MIC [3] was over 128 µg/mL and the Ratio [7] was 8 - 16. It also gave a Ratio [8] of over 4, an MIC [9] of 32 µg/mL (≈ 36.7 µM) and an MIC [10] of 2 µg/mL (≈ 2.29 µM). For the same compound, the Ratio [12] was 8 - 16, the MIC [13] was 16 µg/mL (≈ 18.3 µM) and the MIC [14] was 64 µg/mL (≈ 73.4 µM). The Ratio [15] was 8 - 16, the Ratio [16] was over 4 and the MIC [18] was 32 µg/mL (≈ 36.7 µM). For the same compound, the Ratio [19] was 4 - 8 and the MIC [20] was 128 µg/mL (≈ 147 µM).
In the case of CC[C@H]1OC(=O)[C@H](C)C(=O)[C@H](C)[C@@H](O[C@H]2O[C@@H](C)C[C@@H](N(C)C)[C@@H]2O)[C@](C)(OC)C[C@@H](C)C(=O)[C@H](C)[C@@H](OC(=O)NCCCn2cc(-c3ccccc3OC)nn2)[C@]1(C)O, the MIC [2] was 64 µg/mL (≈ 75.6 µM), the MIC [3] was over 128 µg/mL and the Ratio [7] was 8 - 16. It also gave an MIC [9] of 256 µg/mL (≈ 303 µM), an MIC [10] of 2 µg/mL (≈ 2.36 µM) and an MIC [13] of 8 µg/mL (≈ 9.46 µM). The MIC [14] was over 256 µg/mL, the MIC [18] was 32 µg/mL (≈ 37.8 µM) and the Ratio [19] was 4 - 8. The MIC [20] was 128 µg/mL (≈ 151 µM).
CC[C@H]1OC(=O)[C@H](C)C(=O)[C@H](C)[C@@H](O[C@H]2O[C@@H](C)C[C@@H](N(C)C)[C@@H]2O)[C@](C)(OC)C[C@@H](C)C(=O)[C@H](C)[C@@H](OC(=O)NCCCn2cc(-c3cccc(N)c3)nn2)[C@]1(C)O was tested, and the MIC [2] was 128 µg/mL (≈ 154 µM), the MIC [3] was over 128 µg/mL and the Ratio [7] was 8 - 16. For the same compound, the MIC [9] was 128 µg/mL (≈ 154 µM), the MIC [10] was 4 µg/mL (≈ 4.81 µM) and the MIC [13] was 16 µg/mL (≈ 19.3 µM). For the same compound, the MIC [14] was over 256 µg/mL, the MIC [18] was 32 µg/mL (≈ 38.5 µM) and the Ratio [19] was 4 - 8. For the same compound, the MIC [20] was 128 µg/mL (≈ 154 µM).
For CC[C@H]1OC(=O)[C@H](C)C(=O)[C@H](C)[C@@H](O[C@H]2O[C@@H](C)C[C@@H](N(C)C)[C@@H]2O)[C@](C)(OC)C[C@@H](C)C(=O)[C@H](C)[C@@H](OC(=O)NCCCn2cc(-c3ccc(Cl)cc3)nn2)[C@]1(C)O, the MIC [2] was 32 µg/mL (≈ 37.6 µM), the MIC [3] was over 128 µg/mL and the MBC [4] was 128 µg/mL (≈ 151 µM). The Ratio [5] was 1, the MBC [6] was 128 µg/mL (≈ 151 µM) and the Activity [21] was “Dose-dependent effect”. The Ratio [7] was 8 - 16, the Activity [22] was “Active” and the MIC [9] was 64 µg/mL (≈ 75.3 µM). The MIC [10] was 1 µg/mL (≈ 1.18 µM), the Ratio [11] was 512 and the Ratio [12] was 8 - 16. For the same compound, the MIC [13] was 4 µg/mL (≈ 4.7 µM), the MIC [14] was 128 µg/mL (≈ 151 µM) and the Ratio [15] was 8 - 16. The MIC [18] was 16 µg/mL (≈ 18.8 µM), the Ratio [19] was 4 - 8 and the MIC [20] was 128 µg/mL (≈ 151 µM).
CC[C@H]1OC(=O)[C@H](C)C(=O)[C@H](C)[C@@H](O[C@H]2O[C@@H](C)C[C@@H](N(C)C)[C@@H]2O)[C@](C)(OC)C[C@@H](C)C(=O)[C@H](C)[C@@H](OC(=O)NCCn2cc(-c3ccc(-c4ccccc4)cc3)nn2)[C@]1(C)O gave an MIC [2] of 32 µg/mL (≈ 36.4 µM), an MIC [3] of over 128 µg/mL and an MIC [9] of 128 µg/mL (≈ 146 µM). The MIC [10] was 4 µg/mL (≈ 4.56 µM), the Ratio [12] was 8 - 16 and the MIC [13] was 32 µg/mL (≈ 36.4 µM). For the same compound, the MIC [14] was 128 µg/mL (≈ 146 µM), the Ratio [15] was 8 - 16 and the MIC [18] was 64 µg/mL (≈ 72.9 µM). For the same compound, the MIC [20] was 128 µg/mL (≈ 146 µM).
With CC[C@H]1OC(=O)[C@H](C)[C@@H](O[C@H]2C[C@@](C)(OC)[C@@H](O)[C@H](C)O2)[C@H](C)[C@@H](O[C@@H]2O[C@H](C)C[C@H](N(C)C)[C@H]2O)[C@](C)(OC)C[C@@H](C)C(=O)[C@H](C)[C@@H](O)[C@]1(C)O [CLARITHROMYCIN] the MIC [2] was 256 µg/mL (≈ 342 µM), the MIC [3] was over 128 µg/mL and the MBC [4] was 256 µg/mL (≈ 342 µM). It also gave a Ratio [5] of 16, an MBC [6] of 128 µg/mL (≈ 171 µM) and an MIC [9] of over 256 µg/mL. It also gave an MIC [10] of 0.25 µg/mL (≈ 0.334 µM), a Ratio [11] of 128 and an MIC [13] of 0.25 µg/mL (≈ 0.334 µM). It also gave an MIC [14] of over 256 µg/mL, an MIC [18] of 128 µg/mL (≈ 171 µM) and an MIC [20] of 32 µg/mL (≈ 42.8 µM).
CC[C@H]1OC(=O)[C@H](C)C(=O)[C@H](C)[C@@H](O[C@H]2O[C@@H](C)C[C@@H](N(C)C)[C@@H]2O)[C@](C)(OC)C[C@@H](C)C(=O)[C@H](C)[C@@H](OC(=O)NCCCn2cc(-c3cccc(Br)c3)nn2)[C@]1(C)O was tested, and the MIC [2] was 32 µg/mL (≈ 35.8 µM), the MIC [3] was over 128 µg/mL and the Ratio [7] was 8 - 16. The MIC [9] was 64 µg/mL (≈ 71.5 µM), the MIC [10] was 2 µg/mL (≈ 2.23 µM) and the Ratio [12] was 8 - 16. For the same compound, the MIC [13] was 8 µg/mL (≈ 8.94 µM), the MIC [14] was 128 µg/mL (≈ 143 µM) and the Ratio [15] was 8 - 16. For the same compound, the MIC [18] was 32 µg/mL (≈ 35.8 µM), the Ratio [19] was 4 - 8 and the MIC [20] was 128 µg/mL (≈ 143 µM).
